# Where “and” joins values, the source holds several entries; their conditions need not be identical. Equal values may be shown once. Read-outs that look alike come from different tables or passages of the source.
# Key:
# [1] = system: blood brain barrier (BBB); test: BBB permeabilization in rats, Evans blue extravasation into brain; assay type: in vivo, Sprague-Dawley rats; conditions: for μg EB/g brain (at EC50): at EC50 (Mannitol at 25%); for MEC (minimal effective concentration): concentration giving 3 μg EB/g brain; for MEC: Table 8, sodium salt, in µM
# [2] = system: blood brain barrier (BBB); test: BBB permeability to EB-albumin and Fluorescein in normal rat brains; assay type: in vivo; conditions: compounds at EC50 (Mannitol 25%); for % EB/g brain: control 0.04 ± 0.01; for Brain fluorescein uptake (% of serum F-Na level): control 0.3 ± 0.08; for Ratio F-Na/EB (mean of individual ratios): control 9.5 ± 1.6
# In short: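 In normal rats, Evans blue–albumin (70 kD) and fluorescein sodium (376 D) were infused into the external carotid artery over 30 s, with test compounds at their EC50 concentrations or vehicle. EB reported as percent of total per gram brain; fluorescein as percent of serum level.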
# [3] = assay type: in vivo; conditions: rats, sodium salt; for LC (minimal concentration that caused death): i.a., viability monitored 24 hours
# Experimental: DP-BFA molecules were evaluated for safety and toxicity. Increasing doses of the tested compounds were administered intra-arterially (i.a.) into rats following the protocol described above in Example 17. Animal viability was monitored for 24 hours to evaluate lethal concentrations (LC). LC is defined as the minimal concentration that caused death.
# Safety index is defined as the ratio between the lethal dose (LC) and the minimal effective concentration (MEC), wherein MEC corresponds to a calculated concentration of the tested compound that elicits accumulation of three times the amount of Evans blue accumulated in control animals treated with vehicle only, i.e. total accumulation of 3 μg EB. The higher the LC/MEC ratio is, the higher the safety index.
# [4] = Octanol/saline solubility and partition coefficient, shake-flask technique; conditions: for logD / LogPc (octanol-saline partition coefficient): octanol/physiological saline; for LogPc (octanol-saline partition coefficient) / Water mg/ml (solubility in aqueous solution): sodium salts; for Water mg/ml (solubility in aqueous solution): physiological saline as aqueous solution; for Octanol mg/ml (solubility in octanol): sodium salts of the branched fatty acids and their PO4 derivatives
# Experimental: The lipophilicity values of various derivatives of branched fatty acids were estimated by comparing the solubility of these compounds in organic versus aqueous solutions. Octanol and physiological saline were used, respectively, as the organic and aqueous solutions. The partition coefficient (Pc) value, i.e. the octanol/saline distribution was measured by the shake-flask technique.
# [5] = Table 6, rat brains, Evans blue extravasation, read-out: EQ50 (the source's name)
# [6] = octanol, organic solvent or mixture
# [7] = physiological saline, saline or isotonic
Compound,μg EB/g brain (at EC50) ([1]; Table 6),MEC (minimal effective concentration) ([1]; Table 6),"EC50 [1, 5]",% EB/g brain [2],Brain fluorescein uptake (% of serum F-Na level) [2],Ratio F-Na/EB (mean of individual ratios) [2],MEC [1],LC (minimal concentration that caused death) [3],Safety LC/MEC [3],"solubility [4, 6]",logD [4],"solubility [4, 7]","permeabilization of the BBB (FIG. 1, in words) ([1]; Evans blue extravasation in rat brain, 3,n-type BFAs)",MEC (minimal effective concentration) ([1]; Table 5),"EC50 ([1]; Table 5, rat brain, intracarotid infusion, read-out: EC50 (Evans Blue extravasation))",LogPc (octanol-saline partition coefficient) [4],Water mg/ml (solubility in aqueous solution) [4],Octanol mg/ml (solubility in octanol) [4]
"CCCCCCCCCCCCC(CCC)C(=O)OCCOCCOP(=O)([O-])[O-].[Na+].[Na+] (centres unmarked) [3,12-DEG-PO4Na2, 2-[2′-(2″-Propyltetradecanoyloxy)-ethoxy]ethyl Disodium Phosphate]",18 μg EB/g brain and 18 ± 3 μg EB/g brain,3.3 µM and 3.3 ± 0.5 µM,20 µM,1.4 ± 0.2%,9.0 ± 1.4 % of the F—Na level in the ser,9.0 ± 1.2,–,–,–,–,–,–,–,–,–,–,–,–
"CCCCCCCCCCCCC(CCC)C(=O)OCCOP(=O)([O-])OCC[N+](C)(C)C (centres unmarked) [3,12-MEG-PC, 2-(2′-Propyltetradecanoyloxy)ethylphosphocholine]",15 ± 2 μg EB/g brain,10 ± 1 µM,19.5 ± 1.5 µM,0.9 ± 0.2%,5.2 ± 0.8 % of the F—Na level in the ser,6.9 ± 0.1,10 ± 1,15 ± 2 µM,1.5,> 10000 µg/mL,1.22,> 10000 µg/mL,–,–,–,–,–,–
"CCCCCCCCCCCCC(CCC)C(=O)[O-].[Na+] (centres unmarked) [3,12-Na, reference compound]",–,–,–,1.8 ± 0.2%,6.4 ± 1.1 % of the F—Na level in the ser,4.9 and 4.9 ± 0.9,6.5 ± 0.7,40 ± 10 µM,6.1,–,–,–,active,6.5 ± 0.7,20 ± 3 µM,0.99,>10 mg/mL,>20 mg/mL
"CCCCCCCCCCCCC(CCC)C(=O)OCCOCCOP(=O)([O-])OCC[N+](C)(C)C (centres unmarked) [3,12-DEG-PC, 2-(2′-Propyltetradecanoyloxy)ethoxyethylphosphocholine]",14 ± 2 μg EB/g brain,15 ± 2 µM,70 ± 12 µM,0.6 ± 0.1%,2.9 ± 0.5 % of the F—Na level in the ser,6.8 ± 0.8,15 ± 2,300 ± 60 µM,20,> 50000 µg/mL,0.73,> 10000 µg/mL,–,–,–,–,–,–
"2-(4′-Hexadecanoyloxy)ethoxyethyl phosphate [3,12-DEG-PO4]",–,–,–,–,–,around 9,3.0 ± 0.5,30 ± 5 µM,–,–,–,–,–,–,–,1.31,8 mg/mL,>5 mg/mL
"CCCCCCCCCCCCC(CCC)OP(=O)([O-])OCC[N+](C)(C)C (centres unmarked) [3,12-PC, 4-Hexadecanyl phosphocholine]",10 ± 1 μg EB/g brain,23 ± 4 µM,76 ± 14 µM,0.8 ± 0.1%,3.0 ± 0.5 % of the F—Na level in the ser,7.8 ± 1.3,23 ± 4,80 ± 16 µM,3.5,–,–,–,–,–,–,–,>10 mg/mL,>10 mg/mL

# From US7186703B2, “Derivatives of branched-chain lipophilic molecules and uses thereof” (D-Pharm Ltd., priority 2000, dated 2007)
